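Step 1: Grow cells in 96-well plates. Step 2: Expose to compound for 48 hours at 5 concentrations. Step 3: Interpolate endpoints linearly; if unreached, use highest concentration. TGI: concentration producing complete growth inhibition.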
What was measured:
Test in all cases: growth of human tumour cells (NCI), 48 h
OVCAR-3 ovarian = test system: OVCAR-3 ovarian
SK-OV-3 ovarian = test system: SK-OV-3 ovarian
SK-MEL-28 melanoma = test system: SK-MEL-28 melanoma
MOLT-4 leukemia = test system: MOLT-4 leukemia
UACC-62 melanoma = test system: UACC-62 melanoma
SNB-75 CNS = test system: SNB-75 CNS
OVCAR-4 ovarian = test system: OVCAR-4 ovarian
KM12 colon = test system: KM12 colon
SF-539 CNS = test system: SF-539 CNS
NCI-H460 lung = test system: NCI-H460 lung
HL-60(TB) leukemia = test system: HL-60(TB) leukemia
M14 melanoma = test system: M14 melanoma
HOP-92 NSCLC = test system: HOP-92 NSCLC
HCT-116 colon = test system: HCT-116 colon
HS 578T breast = test system: HS 578T breast
A549 NSCLC = test system: A549 NSCLC
MCF7 breast = test system: MCF7 breast
HOP-62 NSCLC = test system: HOP-62 NSCLC
NCI/ADR-RES ovarian = test system: NCI/ADR-RES ovarian
SK-MEL-5 melanoma = test system: SK-MEL-5 melanoma
SR leukemia = test system: SR leukemia
PC-3 prostate = test system: PC-3 prostate
CCRF-CEM leukemia = test system: CCRF-CEM leukemia
SF-268 CNS = test system: SF-268 CNS
UACC-257 melanoma = test system: UACC-257 melanoma
T-47D breast = test system: T-47D breast
RPMI-8226 leukemia = test system: RPMI-8226 leukemia
TK-10 renal = test system: TK-10 renal
SF-295 CNS = test system: SF-295 CNS
MDA-MB-231 breast = test system: MDA-MB-231 breast
SW-620 colon = test system: SW-620 colon
ACHN renal = test system: ACHN renal
LOX IMVI melanoma = test system: LOX IMVI melanoma
BT-549 breast = test system: BT-549 breast
HCC-2998 colon = test system: HCC-2998 colon
SNB-19 CNS = test system: SNB-19 CNS
UO-31 renal = test system: UO-31 renal
786-0 renal = test system: 786-0 renal
OVCAR-5 ovarian = test system: OVCAR-5 ovarian
MALME-3M melanoma = test system: MALME-3M melanoma
SN12C renal = test system: SN12C renal
COLO 205 colon = test system: COLO 205 colon
HT29 colon = test system: HT29 colon
NCI-H23 lung = test system: NCI-H23 lung
U251 CNS = test system: U251 CNS
DU-145 prostate = test system: DU-145 prostate
CAKI-1 renal = test system: CAKI-1 renal
IGROV1 ovarian = test system: IGROV1 ovarian
MDA-N = test system: MDA-N
RXF 393 renal = test system: RXF 393 renal
K-562 leukemia = test system: K-562 leukemia
MDA-MB-435 = test system: MDA-MB-435
HCT-15 colon = test system: HCT-15 colon
A498 renal = test system: A498 renal
OVCAR-8 ovarian = test system: OVCAR-8 ovarian
NCI-H522 lung = test system: NCI-H522 lung
EKVX NSCLC = test system: EKVX NSCLC
SK-MEL-2 melanoma = test system: SK-MEL-2 melanoma

In the case of CC(=O)OCC1OC(n2c(C)c(N=Nc3ccc(C)cc3)c(C)c(C#N)c2=S)C(OC(C)=O)C(OC(C)=O)C1OC(C)=O (stereo not given), the TGI (OVCAR-3 ovarian) is reported as > 100 µM, the TGI (SK-OV-3 ovarian) is reported as > 100 µM and the TGI (SK-MEL-28 melanoma) is reported as > 100 µM. For the same compound, the TGI (MOLT-4 leukemia) was > 100 µM, the TGI (UACC-62 melanoma) was > 100 µM and the TGI (SNB-75 CNS) was > 100 µM. The TGI (OVCAR-4 ovarian) was > 100 µM, the TGI (KM12 colon) was > 100 µM and the TGI (SF-539 CNS) was > 100 µM. The TGI (NCI-H460 lung) was > 100 µM, the TGI (HL-60(TB) leukemia) was > 100 µM and the TGI (M14 melanoma) was > 100 µM. For the same compound, the TGI (HOP-92 NSCLC) was 34.2 µM, the TGI (HCT-116 colon) was > 100 µM and the TGI (HS 578T breast) was 74.7 µM. For the same compound, the TGI (A549 NSCLC) was > 100 µM, the TGI (MCF7 breast) was > 100 µM and the TGI (HOP-62 NSCLC) was > 100 µM. The TGI (NCI/ADR-RES ovarian) was > 100 µM, the TGI (SK-MEL-5 melanoma) was > 100 µM and the TGI (SR leukemia) was > 100 µM. The TGI (PC-3 prostate) was > 100 µM, the TGI (CCRF-CEM leukemia) was > 100 µM and the TGI (SF-268 CNS) was > 100 µM. The TGI (UACC-257 melanoma) was > 100 µM, the TGI (T-47D breast) was > 100 µM and the TGI (RPMI-8226 leukemia) was > 100 µM. The TGI (TK-10 renal) was > 100 µM, the TGI (SF-295 CNS) was > 100 µM and the TGI (MDA-MB-231 breast) was > 100 µM. For the same compound, the TGI (SW-620 colon) was > 100 µM, the TGI (ACHN renal) was > 100 µM and the TGI (LOX IMVI melanoma) was > 100 µM. For the same compound, the TGI (BT-549 breast) was > 100 µM, the TGI (HCC-2998 colon) was > 100 µM and the TGI (SNB-19 CNS) was > 100 µM. For the same compound, the TGI (UO-31 renal) was > 100 µM, the TGI (786-0 renal) was 72.4 µM and the TGI (OVCAR-5 ovarian) was > 100 µM. The TGI (MALME-3M melanoma) was > 100 µM, the TGI (SN12C renal) was > 100 µM and the TGI (COLO 205 colon) was > 100 µM. The TGI (HT29 colon) was > 100 µM, the TGI (NCI-H23 lung) was > 100 µM and the TGI (U251 CNS) was > 100 µM. The TGI (DU-145 prostate) was > 100 µM, the TGI (CAKI-1 renal) was > 100 µM and the TGI (IGROV1 ovarian) was > 100 µM. For the same compound, the TGI (MDA-N) was > 100 µM, the TGI (RXF 393 renal) was > 100 µM and the TGI (K-562 leukemia) was > 100 µM. The TGI (MDA-MB-435) was > 100 µM.
C=CCNC1=C2C[C@@H](C)C[C@@H](OC)[C@H](OC(=O)CN(C)C)[C@H](C)/C=C(\C)[C@@H](OC(N)=O)[C@H](OC)/C=C\C=C(/C)C(=O)NC(=CC1=O)C2=O gave a TGI (OVCAR-3 ovarian) of 13.8 µM, a TGI (SK-OV-3 ovarian) of 20 µM and a TGI (SK-MEL-28 melanoma) of 25.7 µM. The TGI (MOLT-4 leukemia) was > 41.6 µM, the TGI (UACC-62 melanoma) was 11.6 µM and the TGI (SNB-75 CNS) was 0.909 µM. For the same compound, the TGI (OVCAR-4 ovarian) was 26 µM, the TGI (KM12 colon) was 0.274 µM and the TGI (HCT-15 colon) was 20.4 µM. It also gave a TGI (SF-539 CNS) of 16.2 µM, a TGI (NCI-H460 lung) of 15.6 µM and a TGI (HL-60(TB) leukemia) of 13.7 µM. The TGI (M14 melanoma) was 18.9 µM, the TGI (HOP-92 NSCLC) was 23.3 µM and the TGI (HCT-116 colon) was 16.2 µM. The TGI (HS 578T breast) was 47.7 µM, the TGI (A549 NSCLC) was 16.9 µM and the TGI (A498 renal) was 19.4 µM. The TGI (MCF7 breast) was 14.3 µM, the TGI (HOP-62 NSCLC) was 17.6 µM and the TGI (NCI/ADR-RES ovarian) was > 92.1 µM. For the same compound, the TGI (SK-MEL-5 melanoma) was 14.6 µM, the TGI (SR leukemia) was > 32 µM and the TGI (PC-3 prostate) was 16.6 µM. The TGI (CCRF-CEM leukemia) was > 59.3 µM, the TGI (SF-268 CNS) was 30.5 µM and the TGI (UACC-257 melanoma) was 17.2 µM. The TGI (T-47D breast) was > 42.2 µM, the TGI (RPMI-8226 leukemia) was > 48.2 µM and the TGI (TK-10 renal) was 16.3 µM. It also gave a TGI (SF-295 CNS) of 13.5 µM, a TGI (MDA-MB-231 breast) of 10.5 µM and a TGI (SW-620 colon) of 26.9 µM. For the same compound, the TGI (ACHN renal) was 20.1 µM, the TGI (LOX IMVI melanoma) was 8.19 µM and the TGI (BT-549 breast) was 24 µM. For the same compound, the TGI (HCC-2998 colon) was 0.284 µM, the TGI (SNB-19 CNS) was 20.8 µM and the TGI (UO-31 renal) was 24.1 µM. The TGI (OVCAR-8 ovarian) was 63.1 µM, the TGI (786-0 renal) was 21 µM and the TGI (OVCAR-5 ovarian) was 25.7 µM. It also gave a TGI (MALME-3M melanoma) of 19 µM, a TGI (SN12C renal) of 17.7 µM and a TGI (COLO 205 colon) of 1.64 µM. For the same compound, the TGI (HT29 colon) was 12.7 µM, the TGI (NCI-H522 lung) was 18.3 µM and the TGI (NCI-H23 lung) was 19.8 µM. For the same compound, the TGI (U251 CNS) was 19.7 µM, the TGI (DU-145 prostate) was 2.72 µM and the TGI (CAKI-1 renal) was 31.9 µM. The TGI (EKVX NSCLC) was 21.8 µM, the TGI (SK-MEL-2 melanoma) was 13.9 µM and the TGI (IGROV1 ovarian) was 13.5 µM. The TGI (MDA-N) was 13.3 µM, the TGI (RXF 393 renal) was > 41.3 µM and the TGI (K-562 leukemia) was > 42.1 µM. It also gave a TGI (MDA-MB-435) of 13.7 µM.
